Data as given in patent US12053459B2, “CDK2 inhibitors and methods of using the same” (Cedilla Therapeutics, Inc., priority 2021, dated 2024).

Columns and labels:
CDK2/Cyclin E1(14-475) = CDK2/Cyclin E1(14-475) (Homo sapiens, UniProt P24941); experiment: Caliper LabChip EZ Reader mobility shift assay, inhibition of CDK2/Cyclin E1 activity; format: biochemical; conditions: class symbols A-D
Description: Inhibition of CDK2/Cyclin E1 activity in the presence of compounds of the present disclosure was evaluated using a Caliper LabChip® EZ Reader mobility shift assay. In the assay, activated CDK2/Cyclin E1 catalyzes the phosphorylation of a fluorescently tagged peptide 5-FAM-QSPKKG-CONH2 (PerkinElmer, FL Peptide 18) which induces a difference in capillary electrophoresis mobility. The peptide substrate and product were measured, and the conversion ratio was used to determine the inhibition (as % activity and IC50 values) of CDK2/Cyclin E1. Reactions contained 50 mM HEPES pH 7.5, 10 mM MgCl2, 1 mM EDTA, 2 mM DTT, 0.01% Brij35, 0.5 mg/mL BSA, 0.1% DMSO, 2.5 nM CDK2/Cyclin E1(14-475), 100 μM ATP, and 1.5 μM fluorescent peptide substrate.
Dose titrations of inhibitors in 100% DMSO were combined with 3.25 nM CDK2/Cyclin E1(14-475) and 130 μM of ATP in reaction buffer. The mixtures were incubated for 30 minutes before the addition of fluorescent peptide substrate to initiate the kinase reaction. The final conditions were 2.5 nM CDK2/Cyclin E1(14-475), 100 μM ATP, and 1.5 μM fluorescent peptide. The reactions were stopped after 100 minutes with the addition of EDTA (6 mM final EDTA concentration). The stopped reactions were analyzed on a Caliper LabChip® EZ Reader II. The conversion ratios were normalized to yield % activity, plotted against compound concentration, and fit to a four-parameter equation to determine the IC50 for each compound.

Kuramochi cells = experiment: BrdU cell proliferation assay (colorimetric ELISA), Kuramochi cells; format: cell-based; conditions: class symbols A-D
Description: A BrdU assay was used as a measure of proliferation based on the DNA replication process of proliferating cells. BrdU, a pyrimidine analog, is added to the cell culture and incorporated into the DNA of proliferating cells. The presence of the BrdU analog was then measured through a colorimetric ELISA. After fixation and permeabilization of cells, peroxidase-conjugated antibody recognizing BrdU is added and allowed to incubate, followed by thorough washing to remove unbound antibody. In order to quantify the amount of bound antibody, peroxidase substrate is added and produces a color that can be measured at 450 nm.
On day −1, Kuramochi cells (Sekisui XenoTech JCRB0098) were seeded at 2,000 cells/well in columns 2-12 of a 96 well plate (Corning, CLS3596) in 150 uL media and allowed to adhere overnight at 37 degree with 5% CO2. In order to assess specificity of the compounds, Kuramochi RB^KO cells were also plated and treated, as RB^KO cells were not expected to show a proliferative response to CCNE/CDK specific inhibitors.
On day 0, the source plate was prepared by adding 10 mM compounds and performing 3-fold serial dilutions for a 4-point dose response of each compound. Using a multichannel pipette, 2 uL of the contents of the source plate were stamped into an intermediate plate with 500 uL of RPMI 1640 Media, GlutaMAX Supplement (Life Technologies, 61870127) in each well of a Nunc 96 DeepWell™ plate, non-treated 96 DeepWell plate, 2 mL/well, sterile, natural, 60/cs (Sigma Z717274) and mixed thoroughly. 50 uL from row A of this intermediate plate were added to rows A-H of one plate of previously seeded Kuramochi cells, and each subsequent row of the intermediate plate was added to a full plate of cells.
On day 4, the plates were developed using the BrdU ELISA Cell Proliferation Assay according to manufacturer's instructions (Roche, 11647229001). Briefly, BrdU was diluted 1:100 in Gibco®, Opti-MEM® and 20 μL/well was added, shaken for 10 minutes at 350 rpm, and then returned to the incubator for 1 hour. Following incubation, the medium was discarded, and the cells were fixed by adding 200 μL of Fix/Denature solution. The anti-BrdU peroxidase antibody was diluted 1:1000 in OptiMEM, added at 100 μL/well, and incubated while shaking (350 rpm) for one hour. Three washes with PBS were performed to remove any unbound antibody, followed by the addition of 100 μL of substrate solution to each well. […] was then added to halt the reaction, and plates were read out using an Envision spectrophotometer (Perkin Elmer) set to read 450 nm absorbance. Background absorbance values from empty wells were subtracted from all samples and then normalized to DMSO treated wells.

SMILES	IC50 (CDK2/Cyclin E1(14-475)) [µM]	IC50 (Kuramochi cells) [µM]
CNC(=O)[C@H](CCCc1ccccc1)NC(=O)C1CN(C(=O)Cc2c[nH]c3cc(Cl)ccc23)CC2CN(C(=O)c3ccc4c(c3)CC(=O)N4)CC21 (single isomer, unassigned) [I-22]	> 10	> 10
CNC(=O)[C@H](CCCc1ccccc1)NC(=O)C1CN(C(=O)Cc2c[nH]c3cc(Cl)ccc23)CC2CN(C(=O)c3ccc4c(c3)CC(=O)N4)CC21 (single isomer, unassigned) [I-23]	> 10	> 10
CNC(=O)[C@H](Cc1c[nH]c2ccccc12)NC(=O)C1CN(C(=O)Cc2c[nH]c3cc(Cl)ccc23)CC2CN(C(=O)c3ccc(OC(C)C)c(OC)c3)CC21 (single isomer, unassigned) [I-110]	> 10	> 10
CNC(=O)[C@H](Cc1c[nH]c2ccccc12)NC(=O)C1CN(C(=O)Cc2c[nH]c3cc(Cl)ccc23)CC2CN(C(=O)c3ccc(OC(C)C)c(OC)c3)CC21 (single isomer, unassigned) [I-111]	≤ 0.5	> 10
COc1cc(C(=O)N2CC3CN(C(=O)Cc4c[nH]c5cc(Cl)ccc45)CC(C(=O)N[C@H]4CCCN(Cc5ccccc5)C4)C3C2)ccc1OC(C)C (single isomer, unassigned) [I-117]	0.5 to 5	> 10
COc1cc(C(=O)N2CC3CN(C(=O)Cc4c[nH]c5cc(Cl)ccc45)CC(C(=O)N[C@H]4CCCN(Cc5ccccc5)C4)C3C2)ccc1OC(C)C (single isomer, unassigned) [I-118]	> 10	> 10
CNC(=O)[C@H](CCCc1ccccc1)NC(=O)C1CN(C(=O)c2cn3ccncc3n2)CC2CN(C(=O)c3ccc(OC(C)C)c(OC)c3)CC21 (single isomer, unassigned) [I-194]		> 10
COc1cc(C(=O)N2CC3CN(C(=O)Cc4c[nH]c5cc(Cl)ccc45)CC(C(=O)N[C@@H](CCCc4cccc(O)c4)C(=O)NCCCCCN)C3C2)ccc1OC(C)C (single isomer, unassigned) [I-257]	0.5 to 5	> 10
CNC(=O)[C@H](CCCc1ccccc1)NC(=O)C1CN(C(=O)Cc2c[nH]c3cc(Cl)ccc23)CC2CN(C(=O)c3ccc(O)cc3)CC21 (stereo partly drawn) [I-4]	> 10	
CNC(=O)[C@H](CCCc1ccccc1)NC(=O)C1CN(C(=O)Cc2c[nH]c3cc(Cl)ccc23)CC2CN(C(=O)c3ccc4ncccc4c3)CC21 (stereo partly drawn) [I-36]	> 10	
CNC(=O)[C@H](CCCc1ccccc1)NC(=O)C1CN(C(=O)Cc2c[nH]c3cc(Cl)ccc23)CC2CN(C(=O)c3cccc(OC)c3)CC21 (stereo partly drawn) [I-49]		> 10
CNC(=O)[C@H](CCCc1ccccc1)NC(=O)C1CN(C(=O)Cc2c[nH]c3cc(Cl)ccc23)CC2CN(C(=O)C3CCCCC3)CC21 (stereo partly drawn) [I-51]		> 10
CNC(=O)[C@H](CCCc1ccccc1)NC(=O)C1CN(C(=O)Cc2c[nH]c3cc(Cl)ccc23)CC2CN(C(=O)c3ccc4c(c3)CCO4)CC21 (stereo partly drawn) [I-53]		> 10
CNC(=O)[C@H](CCCc1ccccc1)NC(=O)C1CN(C(=O)Cc2c[nH]c3cc(Cl)ccc23)CC2CN(C(=O)c3cccc(-c4cccnc4)c3)CC21 (stereo partly drawn) [I-63]		> 10
CNC(=O)[C@H](CCCc1ccccc1)NC(=O)C1CN(C(=O)Cc2c[nH]c3cc(Cl)ccc23)CC2CN(C(=O)c3ncc(-c4ccccc4)s3)CC21 (stereo partly drawn) [I-68]		> 10
CNC(=O)[C@H](CCCc1ccccc1)NC(=O)C1CN(C(=O)Cc2c[nH]c3cc(Cl)ccc23)CC2CN(C(=O)c3ccc4oc(=O)n(C)c4c3)CC21 (stereo partly drawn) [I-76]		> 10
CNC(=O)[C@H](CCCC(C)(C)C)NC(=O)C1CN(C(=O)Cc2c[nH]c3cc(Cl)ccc23)CC2CN(C(=O)c3ccc(OC(C)C)c(OC)c3)CC21 (stereo partly drawn) [I-96]		> 10
COc1cc(C(=O)N2CC3CN(C(=O)Cc4c[nH]c5cc(Cl)ccc45)CC(C(=O)NCCCCc4ccccc4)C3C2)ccc1OC(C)C (stereo not drawn) [I-119]		> 10
CNC(=O)[C@@H](Cc1ccccc1)NC(=O)C1CN(C(=O)Cc2c[nH]c3cc(Cl)ccc23)CC2CN(C(=O)c3ccc(OC(C)C)c(OC)c3)CC21 (stereo partly drawn) [I-120]		> 10
CNC(=O)[C@@H](Cc1ccc(O)cc1)NC(=O)C1CN(C(=O)Cc2c[nH]c3cc(Cl)ccc23)CC2CN(C(=O)c3ccc(OC(C)C)c(OC)c3)CC21 (stereo partly drawn) [I-121]		> 10

Now from value to molecule, other results behind:

IC50 (CDK2/Cyclin E1(14-475)) [µM]	SMILES	IC50 (Kuramochi cells) [µM]
> 10	CNC(=O)[C@H](CCCc1ccccc1)NC(=O)C1CN(C(=O)Cc2c[nH]c3cc(Cl)ccc23)CC2CN(C(=O)c3ccc4c(c3)n(C)c(=O)n4C(C)C)CC21 (single isomer, unassigned) [I-86]	> 10
≤ 0.5	CNC(=O)[C@H](CCCc1ccccc1)NC(=O)C1CN(C(=O)Cc2c[nH]c3cc(Cl)ccc23)CC2CN(C(=O)c3ccc4c(c3)n(C)c(=O)n4C(C)C)CC21 (single isomer, unassigned) [I-87]	> 10
≤ 0.5	COc1cc(C(=O)N2CC3CN(C(=O)Cc4c[nH]c5cc(Cl)ccc45)CC(C(=O)NCC(=O)N(C)CCCc4ccccc4)C3C2)ccc1OC(C)C (single isomer, unassigned) [I-100]	0.5 to 5
> 10	COc1cc(C(=O)N2CC3CN(C(=O)Cc4c[nH]c5cc(Cl)ccc45)CC(C(=O)NCC(=O)N(C)CCCc4ccccc4)C3C2)ccc1OC(C)C (single isomer, unassigned) [I-101]	> 10
> 10	CNC(=O)[C@H](CCCc1cccc(O)c1)NC(=O)C1CN(C(=O)Cc2c[nH]c3cc(Cl)ccc23)CC2CN(C(=O)c3ccc(OC(C)C)c(OC)c3)CC21 (single isomer, unassigned) [I-152]	> 10
0.5 to 5	CNC(=O)[C@H](CCCc1cccc(O)c1)NC(=O)C1CN(C(=O)Cc2c[nH]c3cc(Cl)ccc23)CC2CN(C(=O)c3ccc(OC(C)C)c(OC)c3)CC21 (single isomer, unassigned) [I-153]	> 10
> 10	CNC(=O)[C@H](CCCc1ccccc1)NC(=O)C1CN(C(=O)c2cn3ccncc3n2)CC2CN(C(=O)c3ccc(OC(C)C)c(OC)c3)CC21 (single isomer, unassigned) [I-195]	> 10
> 10	CNC(=O)[C@H](CCCc1ccccc1)NC(=O)C1CN(C(=O)c2coc(Cl)n2)CC2CN(C(=O)c3ccc(OC(C)C)c(OC)c3)CC21 (single isomer, unassigned) [I-232]	> 10
> 10	CNC(=O)[C@H](CCCc1ccccc1)NC(=O)C1CN(C(=O)c2coc(Cl)n2)CC2CN(C(=O)c3ccc(OC(C)C)c(OC)c3)CC21 (single isomer, unassigned) [I-233]	> 10
5 to 10	CNC(=O)[C@H](CCCc1ccccc1)NC(=O)C1CN(C(=O)Cc2c[nH]c3cc(Cl)ccc23)CC2CN(C(=O)c3ccc(OC)c(OC)c3)CC21 (stereo partly drawn) [I-33]	
> 10	CNC(=O)[C@H](CCCc1ccccc1)NC(=O)C1CN(C(=O)Cc2cccnc2)CC2CN(C(=O)c3ccc(OC(C)C)c(OC)c3)CC21 (stereo partly drawn) [I-224]	
> 10	CNC(=O)[C@H](CCCc1ccccc1)NC(=O)C1CN(CCc2c[nH]c3cc(Cl)ccc23)CC2CN(C(=O)c3ccc(OC(C)C)c(OC)c3)CC21 (stereo partly drawn) [I-254, 5-(2-(6-chloro-1H-indol-3-yl)ethyl)-2-(4-isopropoxy-3-methoxybenzoyl)-N—((S)-1-(methylamino)-1-oxo-5-phenylpentan-2-yl)octahydro-1H-pyrrolo[3,4-c]pyridine-7-carboxamide]	
